Reference: patent US20170354659A1, “COMPOSITIONS CONTAINING DEFINED CAFFEINE AND THEOBROMINE LEVELS WITH ENHANCED COGNITIVE PROPERTIES” (The Hershey Company, priority 2014, published 2017)

Tests used:
[1] = test system: regions of the brain associated with caffeine cravings; assay: fMRI brain blood flow/connectivity analysis; type: in vivo, human; settings: subjects with a caffeine habit, FIG. 1 and 3
Excerpt: Measurement or detection of changes in the brain can be done using functional MRI (fMRI) and functional brain network analyses as known in the art. The following is an exemplary study using known techniques based upon fMRI scanning of human brains.
These examples represent an intervention study (number of subjects=24) with a randomized controlled, double-blind, placebo-controlled crossover design. The study is designed to ensure completion of all possibilities in the order of delivering the test samples, i.e. each subject is administered each of the possible test beverages in different order. An approximately equal number of men and women should be included and ethnic groups and minorities should also be included. For initial baseline testing, subjects undergo 16 hours of caffeine and chocolate withdrawal for a baseline testing and then participate in four separate brain scanning visits over 5-10 weeks. […] As determined from a medical screening session, any subjects with active neurological dysfunction (such as a major Axis I psychopathology, Alzheimer's disease, Parkinson's disease, prior history of stroke, epilepsy, or serious CNS trauma, ADHD, migraines, hypertension, diabetes, peripheral vascular disease, or taking vasoactive medications, such as antihypertensive medications) are excluded from the study. […]

brain blood flow = settings: difference between caffeine and theobromine, 6 participants; cited from earlier work

Row | SMILES | change in blood flow/connectivity by fMRI [1] | brain blood flow difference (brain blood flow) [ml/100 gm tissue/min]
1 | Cn1c(=O)c2c(ncn2C)n(C)c1=O [Caffeine, caffeine] | typical reduction in blood flow/connectivity | –
2 | Cn1cnc2c1c(=O)[nH]c(=O)n2C [theobromine] | – | 5.03
